# Laboratory results as given in ChEMBL document CHEMBL1268944, “The antiplasmodial activity of norcantharidin analogs” (Bioorg Med Chem Lett, 2010).
# Tests used:
# Plasmodium falciparum [1] = experiment: Antiplasmodial activity against chloroquine-sensitive Plasmodium falciparum D6 assessed as inhibition of parasite LDH activity after 72 hrs by malstat reagent method; type: functional, organism-based; conditions: D6, 72 h
# Plasmodium falciparum [2] = experiment: Antiplasmodial activity against chloroquine-resistant Plasmodium falciparum W2 assessed as inhibition of parasite LDH activity […] after 72 hrs by malstat reagent method; type: functional, organism-based; conditions: W2, 72 h
# Homo sapiens [3] = species: Homo sapiens; experiment: Inhibition of human PP2A at 100 uM
# Homo sapiens [4] = species: Homo sapiens; experiment: Inhibition of human PP1 at 100 uM
# [5] = Inhibition of human PP1
# [6] = Inhibition of human PP2A
# [7] = Solubility of the compound in PP1 assay medium at 40 mM; type: physicochemical; conditions: 40000 µM
# [8] = Solubility of the compound in PP2A assay medium at 40 mM; type: physicochemical; conditions: 40000 µM
SMILES,IC50 (Plasmodium falciparum [1]),IC50 (Plasmodium falciparum [2]),inhibition (Homo sapiens [3]),inhibition (Homo sapiens [4]),IC50 [5],IC50 [6],solubility [7],solubility [8]
O=C(O)C1C(C(=O)Nc2ccccc2O)[C@H]2CC[C@@H]1O2 (stereo not given in full),385 µM,380 µM,9.8%,33%,–,–,–,–
O=C(O)C1C(C(=O)NCCc2cnc[nH]2)[C@H]2CC[C@@H]1O2 (stereo not given in full),307 µM,267 µM,26%,35%,–,–,–,–
CC(C)(C)c1cc(NC(=O)C2C(C(=O)O)[C@@H]3CC[C@H]2O3)cc(C(C)(C)C)c1 (stereo not given in full),59.3 µM,176 µM,–,–,8.2 µM,8.2 µM,–,–
CCN1C(=O)C2C(C1=O)[C@H]1CC[C@@H]2O1 (stereo not given in full),> 500 µM,> 500 µM,–,–,–,–,–,–
O=C(O)C1C(C(=O)Nc2ccc(I)cc2)[C@H]2CC[C@@H]1O2 (stereo not given in full),230 µM,248 µM,–,–,33 µM,14 µM,–,–
O=C(O)CCCCCNC(=O)C1C(C(=O)O)[C@@H]2CC[C@H]1O2 (stereo not given in full),260 µM,> 500 µM,–,–,14 µM,3.5 µM,–,–
CCCCCCCCCCCCNC(=O)C1C(C(=O)O)[C@@H]2CC[C@H]1O2 (stereo not given in full),70 µM,106 µM,–,–,–,–,Insoluble,Insoluble
O=C(O)C1C(C(=O)NCc2ccc(C(F)(F)F)cc2)[C@H]2CC[C@@H]1O2 (stereo not given in full),248 µM,433 µM,–,–,16 µM,20 µM,–,–
O=C(O)C1C(C(=O)NCCCc2ccccc2)[C@H]2CC[C@@H]1O2 (stereo not given in full),383 µM,230 µM,–,–,25 µM,25 µM,–,–
CC(C)(C)c1ccc(NC(=O)C2C(C(=O)O)[C@@H]3CC[C@H]2O3)cc1 (stereo not given in full),405 µM,> 500 µM,–,–,10 µM,11 µM,–,–
CCC(C)N1C(=O)C2C(C1=O)[C@H]1CC[C@@H]2O1 (stereo not given in full),225 µM,125 µM,–,–,–,–,–,–
COc1ccc(CNC(=O)C2C(C(=O)O)[C@@H]3CC[C@H]2O3)cc1 (stereo not given in full),> 500 µM,> 500 µM,–,–,35 µM,13 µM,–,–
COc1ccc(CN2C(=O)C3C(C2=O)[C@H]2CC[C@@H]3O2)cc1 (stereo not given in full),24 µM,25 µM,–,–,–,–,–,–
CCCCCCNC(=O)C1C(C(=O)O)[C@@H]2CC[C@H]1O2 (stereo not given in full),> 500 µM,390 µM,–,–,35 µM,13 µM,–,–
CSc1ccc(NC(=O)C2C(C(=O)O)[C@@H]3CC[C@H]2O3)cc1 (stereo not given in full),> 500 µM,> 500 µM,–,–,10 µM,14 µM,–,–
CCCCCCCCN1C(=O)C2C(C1=O)[C@H]1CC[C@@H]2O1 (stereo not given in full),225 µM,250 µM,–,–,–,–,–,–
CC(C)(CO)N1C(=O)C2C(C1=O)[C@H]1CC[C@@H]2O1 (stereo not given in full),> 500 µM,> 500 µM,–,–,–,–,–,–
CCCCN1C(=O)C2C(C1=O)[C@H]1CC[C@@H]2O1 (stereo not given in full),8.9 µM,12.5 µM,–,–,–,–,–,–
O=C(O)CCCNC(=O)C1C(C(=O)O)[C@@H]2CC[C@H]1O2 (stereo not given in full),> 500 µM,> 500 µM,–,–,15 µM,3.3 µM,–,–
CCCNC(=O)C1C(C(=O)O)[C@@H]2CC[C@H]1O2 (stereo not given in full),> 500 µM,> 500 µM,–,–,46 µM,18 µM,–,–
Cc1cccc(NC(=O)C2C(C(=O)O)[C@@H]3CC[C@H]2O3)c1C (stereo not given in full),260 µM,220 µM,62%,84%,–,–,–,–
O=C(O)C1C(C(=O)Nc2ccccc2CO)[C@H]2CC[C@@H]1O2 (stereo not given in full),275 µM,333 µM,30%,84%,–,–,–,–
O=C1C2C(C(=O)N1N1CCOCC1)[C@H]1CC[C@@H]2O1 (stereo not given in full),> 500 µM,> 500 µM,–,–,–,–,–,–
CC(C)(C)c1ccccc1NC(=O)C1C(C(=O)O)[C@@H]2CC[C@H]1O2 (stereo not given in full),> 500 µM,> 500 µM,16%,9%,–,–,–,–
CC(C)C[C@@H](C(=O)O)N1C(=O)C2C(C1=O)[C@H]1CC[C@@H]2O1 (stereo not given in full),> 500 µM,> 500 µM,–,–,–,–,–,–
O=C(O)C1C(C(=O)Nc2ccc([N+](=O)[O-])cc2)[C@H]2CC[C@@H]1O2 (stereo not given in full),> 500 µM,393 µM,–,–,74 µM,23 µM,–,–
C=CCCNC(=O)C1C(C(=O)O)[C@@H]2CC[C@H]1O2 (stereo not given in full),> 500 µM,> 500 µM,–,–,–,–,Insoluble,Insoluble
O=C1C2C(C(=O)N1CCCCCCO)[C@H]1CC[C@@H]2O1 (stereo not given in full),> 500 µM,> 500 µM,–,–,–,–,–,–
CCCCCCCCCCN1C(=O)C2C(C1=O)[C@H]1CC[C@@H]2O1 (stereo not given in full),375 µM,141 µM,–,–,–,–,–,–
O=C(O)C1C(C(=O)NCc2ccc(F)c(F)c2)[C@H]2CC[C@@H]1O2 (stereo not given in full),473 µM,> 500 µM,–,–,26 µM,26 µM,–,–
